Laboratory results reported in PubChem BioAssay AID464 (The Scripps Research Institute Molecular Screening Center, 2006).
Activity calls are given as the source filed them.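 How the source made its calls: active means Compounds that kill half the cells at a concentration of 5 micromolar or below, from the fitted or estimated CC50; inactive means CC50 above 5 micromolar.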

System: Jurkat E6.1 viability, ATP luminescence, 48 h
Assay: Jurkat E6.1 cell cytotoxicity, CC50 determination, dose response, cytotoxicity control, ATP luminescence, 48 h, 60K MLSMR (AID 464)

| SMILES | CC50 |
| --- | --- |
| COc1cc(C2Nc3ccc4ncccc4c3C3=C2C(=O)CCC3)ccc1O (configuration not stated) | 2.5 µM |
| CN1CCN(Cc2cc(COCc3ccccc3)c3cccnc3c2O)CC1 | 10.5 µM (inactive) |
| CCN1CCN(S(=O)(=O)c2cc(OCC(=O)NC3CCCCC3)c(C)cc2Cl)CC1 | 3.3 µM |
| COc1ccccc1N1CCN(c2nc(C)nc3c2oc2ccccc23)CC1 | 1.04 µM |
| CCCC(=O)Nc1nc2ccc(S(=O)(=O)N3CCCCC3)cc2s1 | 2.82 µM |
| Cc1cc(C(=O)CSc2nnc(NCc3ccccc3)s2)c(C)n1C | 12.9 µM (inactive) |
| O=C(Nc1ccc2oc(Cc3ccc(Cl)cc3)nc2c1)c1cccnc1 | 27.8 µM (inactive) |
| CC1=C(C(=O)OCc2ccc3c(c2)OCO3)C(c2ccc(F)cc2)NC(=O)N1 (configuration not stated) | 3.57 µM |
| CCOc1ccc(-c2[nH]ncc2-c2ccc(OC)c(OC)c2)c(O)c1 | 1.21 µM |
| CC1CCCCC1NS(=O)(=O)c1ccc(S(=O)(=O)NCc2ccncc2)cc1 (configuration not stated) | 2.37 µM |
| CCOc1ccc2nc(N3CCC(C(=O)N4CCN(c5ccccn5)CC4)CC3)sc2c1 | 23.7 µM (inactive) |
| CCC(=NC(C)c1ccccc1)c1c(O)n(C)c(=O)n(C)c1=O (configuration not stated) | 11.3 µM (inactive) |
| Cc1ccc2[nH]c(-c3ccccc3)cc(=O)c2c1 | 0.324 µM |
| O=C(NCc1cccnc1)c1c[nH]c2cc3c(cc2c1=O)OCCO3 | 1.09 µM |
| Cc1ccc(-c2nc(-c3ccccn3)no2)cc1 | 10.3 µM (inactive) |
| CCOC(=O)Nc1c(C(=O)OC)[nH]c2cc(OC)ccc12 | 7.94 µM (inactive) |
| C/C(N)=C(/C#N)C(=O)CSc1nnnn1-c1ccc(C)cc1C | > 40 µM (inactive) |
| Cn1cc(C(=O)c2ccc(Cl)cc2)cc1-c1nc2ccccc2n1C | 23.3 µM (inactive) |
| COCCOC(=O)c1[nH]c2c(c1C)C(=O)CC(c1ccco1)C2 (configuration not stated) | 0.945 µM |
| Cc1cc(C(=O)OCC(=O)NCc2ccco2)c(C)n1-c1ccc(F)cc1 | 2.34 µM |
| COc1ccc(CC(=O)Nc2cccc(-c3nnc(-c4ccccc4)o3)c2)cc1OC | 15.8 µM (inactive) |
| Cc1c(C(=O)N2CCOCC2)[nH]c2c1C(=O)CC(c1ccccc1Cl)C2 (configuration not stated) | 1.6 µM |

| SMILES | CC50 |
| --- | --- |
| COc1cc(N=Cc2c(O)[nH]c3ccccc23)cc(OC)c1OC | 1.58 µM |
| CNc1nc(C)c(C(=O)OCc2ccccc2)s1 | 9.81 µM (inactive) |
| COc1ccc(C2NC(=O)NC3=C2CCc2ccccc23)cc1 (configuration not stated) | 4.81 µM |
| Cc1nc2sccn2c1-c1csc(NCc2ccccc2)n1 | 4.81 µM |
| COC(=O)c1ccc(Cl)c(NS(=O)(=O)c2ccc3c(c2)OCCO3)c1 | 4.81 µM |
| CCOC(=O)C1CCN(C(c2cccnc2)c2c(NC(=O)c3ccco3)sc(C)c2C)CC1 (configuration not stated) | > 40 µM (inactive) |
| Cc1cccc(Cn2c(NCCO)nc3c2c(=O)n(C)c(=O)n3C)c1 | 2.32 µM |
| Oc1c(CN2CCOCC2)cc(COCc2ccccc2)c2cccnc12 | 2.65 µM |
| COc1cc(NC(=O)c2ccc3c(c2)OCO3)ccc1NC(=O)C(C)C | 2.19 µM |
| CC(=O)c1c(C)[nH]c(C(=O)OCCCCN2C(=O)c3ccccc3C2=O)c1C | > 40 µM (inactive) |
| CCOc1cc(N2CCOCC2)c(OCC)cc1NC(=O)COc1cccc2cccnc12 | 9.13 µM (inactive) |
| COc1cc(C2CC(=O)c3c([nH]c(C(=O)OCCOC(C)C)c3C)C2)cc(OC)c1OC (configuration not stated) | 6.55 µM (inactive) |
| CCOc1ccc(-c2cc(CCCC(=O)Nc3cccc(OC)c3)no2)cc1 | 0.809 µM |
| O=C(Cn1cnc2sc(-c3ccccc3)cc2c1=O)NCc1ccco1 | 6 µM (inactive) |
| CCOC(=O)c1c(COc2ccccc2)oc2ccc(O)cc12 | > 40 µM (inactive) |
| Cc1ccc(C)c(-n2nnnc2Sc2nnnn2-c2ccccc2)c1 | 5.87 µM (inactive) |
| O=C(CSc1nc(-c2ccco2)cc(C(F)(F)F)n1)Nc1ccc2c(c1)OCO2 | 5.19 µM (inactive) |
| CCOC(=O)N1CCN(C(=O)c2ccccc2-c2ccccc2)CC1 | 1.91 µM |
| CN(C)c1ccc(C2C=C(c3ccc(Cl)cc3OC(F)F)Nc3ncnn32)cc1 (configuration not stated) | 3.56 µM |
| CN(C)CC(C(=O)c1ccccc1)c1ccccc1 (configuration not stated) | 3.91 µM |
| CC(=O)c1sc(NC(=O)C2(F)C(F)(F)C(F)(F)C(F)(F)C(F)(F)C2(F)F)nc1C | > 13 µM (inactive) |
| Cn1ncc2c(Nc3ccc(-c4ccccc4)cc3)ncnc21 | > 40 µM (inactive) |

| SMILES | CC50 |
| --- | --- |
| COCCOC(=O)c1[nH]c2c(c1C)C(=O)CC(c1ccc(F)cc1)C2 (configuration not stated) | 5.37 µM (inactive) |
| Cc1noc(C)c1COC(=O)c1cccc(S(=O)(=O)N2CCCCCC2)c1 | 21.4 µM (inactive) |
| COc1ccccc1N1CCN(C(=O)C2c3ccccc3Oc3ccccc32)CC1 | 1.27 µM |
| CCN=c1scc(-c2ccc3c(c2)NC(=O)CO3)n1N=C1CCCC1 | 8.47 µM (inactive) |
| CN1c2ccccc2C(C)(C)C12C=Cc1cc(O)ccc1O2 (configuration not stated) | 10.4 µM (inactive) |
| COc1cc(C(Nc2ccccn2)c2ccc3ccc(C)nc3c2O)cc(OC)c1O (configuration not stated) | 6.78 µM (inactive) |
| Nc1ccc(N2CCCCCC2)cc1 | 26.3 µM (inactive) |
| CCCCCCc1ccc(-c2ncc(N)cn2)cc1 | 28.5 µM (inactive) |
| CC(Oc1ccc(Cl)cc1Cl)C(=O)Nc1ccncc1 (configuration not stated) | 7.07 µM (inactive) |
| CC(=O)Nc1ccc(S(=O)(=O)n2cnc3cc(C)c(C)cc32)cc1 | 24.8 µM (inactive) |
| O=C(Cn1cnc2c(cnn2-c2ccccc2)c1=O)NCc1ccccc1 | 9.12 µM (inactive) |
| COc1ccc(-c2nnc(NC(=O)c3ccc(S(=O)(=O)N4COCC4(C)C)cc3)o2)cc1 | 22.7 µM (inactive) |
| COc1ccccc1-c1cc(C(F)(F)F)nc(S(=O)(=O)CCCC(=O)N2CCOCC2)n1 | 2.22 µM |
| Cc1cc(C(=O)OCC(=O)NCc2ccco2)c(C)n1-c1ccccc1 | 2.68 µM |
| O=C(C1CC1)N1CCC(c2nc(-c3ccc(S(=O)(=O)NCC4CCCO4)cc3)no2)CC1 (configuration not stated) | 9.95 µM (inactive) |
| CCC/C(O)=C1\C(=O)CC(C)(C)CC1=Nc1ccc(OC)cc1OC | 1.78 µM |
| O=c1cc(CSc2nnc(-c3cccs3)n2Cc2ccccc2)nc2sc3ccccc3n12 | 4.96 µM |
| COc1ccccc1C1C=C(c2ccccc2)Nc2nnnn21 (configuration not stated) | > 13 µM (inactive) |
| O=c1c2[nH]c3ccc(F)cc3c2ncn1CCCn1ccnc1 | 17.1 µM (inactive) |
| CCCn1c(NC(=O)c2cccc(S(=O)(=O)N3CCCC3)c2)nc2ccccc21 | > 40 µM (inactive) |
| COc1cc(CN2CCN(c3cccc(Cl)c3)CC2)cc(OC)c1OC | 4.36 µM |
| CC(=O)c1ccc(Oc2cc(C)nc(-n3nc(C)cc3C)n2)cc1 | 0.293 µM |

| SMILES | CC50 |
| --- | --- |
| CCCCn1c(CN2CCN(c3cccc(Cl)c3)CC2)nc2c1c(=O)[nH]c(=O)n2C | 2.84 µM |
| COc1cc(NS(=O)(=O)c2ccc(C)cc2)c2ncccc2c1 | 10.1 µM (inactive) |
| COc1ccc(-n2nnnc2-c2cccc(OC)c2)cc1 | 0.195 µM |
| c1ccc(CNc2ncnc3ccccc23)cc1 | 4.68 µM |
| O=S(=O)(CCSc1nc2ccccc2o1)c1nc2ccccc2s1 | 7.25 µM (inactive) |
| On1onc2c3cc(-c4ccccc4)nc3ccc21 | 3.9 µM |
| COc1ccc2nc(NC(=O)c3cccc(OCc4c(C)noc4C)c3)sc2c1 | 1.6 µM |
| CCOC(=O)c1[nH]c2c(c1C)C(=O)CC(c1ccc(F)cc1)C2 (configuration not stated) | 0.708 µM |
| C(=C\c1ccccc1)/CSc1nnc(-c2ccccn2)n1Cc1ccco1 | 2.28 µM |
| CCOc1ccccc1NC(=O)CN(c1ccc(OC)cc1)S(=O)(=O)c1c(C)noc1C | 1.37 µM |
| CCc1c(C)nc2ncnn2c1NCCc1ccc(OC)cc1 | 0.901 µM |
| Oc1ccccc1-c1nnc(SCCN2CCOCC2)n1Cc1ccccc1 | 1.7 µM |
| Cn1c(=O)c2c(nc(NCCO)n2CCc2ccccc2)n(C)c1=O | 9.41 µM (inactive) |
| Cc1ccc(-c2csc3ncnc(Sc4nnc(CN5CCCCCC5=O)o4)c23)cc1 | 5.28 µM (inactive) |
| CC1(C)Cc2nc3sc4c(SCC(=O)NCc5ccco5)ncnc4c3cc2CO1 | 18 µM (inactive) |
| CCCn1c(NC(=O)C2CCN(S(=O)(=O)c3cccs3)CC2)nc2ccccc21 | > 40 µM (inactive) |
| Cc1cc(C)n(-c2nnc3n2N=C(c2c[nH]c4ccccc24)CS3)n1 | > 4.4 µM (inactive) |
| C=CCOC(=O)c1[nH]c2c(c1C)C(=O)CC(c1cc(OC)c(OC)c(OC)c1)C2 (configuration not stated) | 24 µM (inactive) |
| O=C(CC(=O)c1ccccc1O)c1cccc(F)c1 | > 40 µM (inactive) |
| COc1cc(NS(=O)(=O)c2ccc(OC)c(C)c2C)c(OC)cc1Cl | 1.62 µM |
| CCCCCN=Cc1c(C)[nH]n(-c2nc3ccccc3s2)c1=O | 6.35 µM (inactive) |
| CC(C)OCCCNc1ncnc2c1[nH]c1ccc(F)cc12 | 2.02 µM |

| SMILES | CC50 |
| --- | --- |
| CCCOc1ccccc1C1CC(=O)Nc2cc3c(cc21)OCCO3 (configuration not stated) | 0.745 µM |
| CCOc1ccccc1N1CC(O)=C(c2nc3ccccc3s2)C1=N | 1.84 µM |
| COc1ccc(CNC(=O)c2cc3c(C)nc4ccccc4c3o2)c(OC)c1 | > 40 µM (inactive) |
| COc1cc(Cn2c(-c3nonc3N)nc3ccccc32)ccc1C | 1.55 µM |
| CCN(C(=O)c1ccc(C(C)(C)C)cc1)c1nnc(Cn2nnc3ccccc32)s1 | > 40 µM (inactive) |
| COc1cccc(-c2cc(C(=O)Nc3cc(OC)c(OC)c(OC)c3)no2)c1 | 8.79 µM (inactive) |
| COc1cc(C)c(C(C)C)cc1S(=O)(=O)n1cnc(C)c1 | 7.61 µM (inactive) |
| Cc1cc(C)c2ccc(N)nc2c1O | 6.83 µM (inactive) |
| CCN(Cc1ccccc1)S(=O)(=O)c1ccc(C(=O)Nc2nnc(C3CC3)o2)cc1 | 32.5 µM (inactive) |
| COc1ccccc1-c1cc(C(=O)Nc2cccnc2)no1 | 0.146 µM |
| CCOC(=O)/C=C/S(=O)(=O)c1ccc(NC(C)=O)cc1 | 3.21 µM |
| CCn1ncc(C2=NOC(C(=O)NCc3ccccc3)C2)c1C (configuration not stated) | 1.09 µM |
| CCN(CC)c1ccc(-c2nn3c(-c4ccccc4OC)nnc3s2)cc1 | 0.115 µM |
| Cc1sc(NC(=O)c2ccco2)c(C(c2cccnc2)N2CCN(c3ccc(F)cc3)CC2)c1C (configuration not stated) | > 40 µM (inactive) |
| Cc1cc(NC(=O)c2cc(-c3ccncc3)nc3c(C)cccc23)no1 | 2.29 µM |
| Cc1ccccc1-n1ncc2c(SCC(=O)NCc3cccs3)ncnc21 | 5.39 µM (inactive) |
| COC(=O)c1ccc(Oc2cc(C)nc(-n3nc(C)cc3C)n2)cc1 | 0.112 µM |
| CC1=C(C(=O)OCc2ccc3c(c2)OCO3)C(c2ccccc2)NC(=O)N1 (configuration not stated) | 17.3 µM (inactive) |
| Cc1cc(C)n(-c2nc3ccccc3c(=O)n2OCC(=O)OCc2ccccc2)n1 | 9.76 µM (inactive) |
